Measured values published in ChEMBL document CHEMBL4689842, “EUbOPEN Chemogenomics Library wave 1” (2021).

How the values were obtained:
Assay type in all cases: toxicity, cell-based
HEK-293T = assay: Incucyte cell viability with HEK293T; conditions: human, 10 µM, compound concentration 10 uM
Fibroblast = assay: Incucyte cell viability with human fibroblast; conditions: 10 µM, compound concentration 10 uM
U2OS = assay: Incucyte cell viability with U2OS; conditions: human, 10 µM, compound concentration 10 uM
[1] = 0 h, replicate number 1, timepoint 0 hours
[2] = 0 h, replicate number 2, timepoint 0 hours
[3] = 6 h, replicate number 2, timepoint 6 hours
[4] = 12 h, replicate number 2, timepoint 12 hours
[5] = 18 h, replicate number 2, timepoint 18 hours
[6] = 24 h, replicate number 1, timepoint 24 hours
[7] = 24 h, replicate number 2, timepoint 24 hours
[8] = 6 h, replicate number 1, timepoint 6 hours
[9] = 12 h, replicate number 1, timepoint 12 hours
[10] = 18 h, replicate number 1, timepoint 18 hours
Note: filed as whole numbers so only -1 and 0 and 1 occur.

Structure (SMILES) | Growth Rate (HEK-293T; [1]) | Growth Rate (HEK-293T; [2]) | Growth Rate (HEK-293T; [6]) | Growth Rate (HEK-293T; [7]) | Growth Rate (Fibroblast; [2]) | Growth Rate (Fibroblast; [8]) | Growth Rate (Fibroblast; [9]) | Growth Rate (Fibroblast; [10]) | Growth Rate (Fibroblast; [5]) | Growth Rate (Fibroblast; [6]) | Growth Rate (U2OS; [1]) | Growth Rate (U2OS; [8]) | Growth Rate (U2OS; [3]) | Growth Rate (U2OS; [9]) | Growth Rate (U2OS; [10]) | Growth Rate (U2OS; [5]) | Growth Rate (U2OS; [6]) | Growth Rate (Fibroblast; [4]) | Growth Rate (U2OS; [4]) | Growth Rate (HEK-293T; [10]) | also measured
CC(C)CC(=O)N1CCc2nc(-c3ccc(Br)cc3)nc(N(C)Cc3ccccc3)c2C1 [THPP-1-NC] | 0 | 1 | 1 | 0 | 0 | 1 | 0 | 1 | 0 | 1 | 0 | 1 | 0 | 0 | 0 | 1 | 0 |  |  |  | Growth Rate (HEK-293T; [3]): 0; Growth Rate (HEK-293T; [4]): 0; Growth Rate (HEK-293T; [5]): 1; Growth Rate (Fibroblast; [3]): 0; Growth Rate (Fibroblast; [7]): 0
Cc1cnc(-c2cc(Cl)ccc2F)cc1-n1c(=O)n(CC(N)=O)c2cnccc21 [TP-008] | 0 | 1 |  | 1 | 0 | 1 | 0 | 0 | 1 | 1 |  | 1 |  | 0 | 0 | 1 | 1 | 1 | 1 |  | Growth Rate (HEK-293T; [3]): 1; Growth Rate (HEK-293T; [4]): 1; Growth Rate (Fibroblast; [7]): 0; Growth Rate (U2OS; [2]): 0
N#Cc1ccc(Nc2ccc3[nH]c(=O)[nH]c3c2)c(Cl)c1 [TP-021n] | 0 | 1 |  | 1 | 1 | 0 | 0 | 0 | 1 | 0 | 1 | 0 |  | 0 | 0 | 1 | 0 |  |  |  | Growth Rate (U2OS; [2]): 0
CN1C(=O)[C@@H](N2CCc3c(nn(Cc4ccccc4)c3Br)C2=O)COc2ccccc21 [TP-030-2] | 0 | 1 | 1 | 0 |  | 0 | 0 | 0 |  | 0 | 0 | 0 | 1 | 0 | 0 | 1 | 0 |  | 1 | 1 | Growth Rate (HEK-293T; [3]): 0; Growth Rate (HEK-293T; [4]): 0; Growth Rate (U2OS; [7]): 1
CC(C)Oc1ccc(-c2nn([C@@H](C)c3oc4ccc(F)cc4c(=O)c3-c3cccc(F)c3)c3ncnc(N)c23)cc1F [UMBRALISIB] | 1 | 0 | 0 |  |  | 1 | 1 | 1 |  | 1 | 0 | 0 | 1 | 0 | 0 | 1 | 0 | 0 | 1 | 0 | Growth Rate (HEK-293T; [8]): 0; Growth Rate (HEK-293T; [9]): 0; Growth Rate (Fibroblast; [3]): 0; Growth Rate (U2OS; [7]): 1
Nc1nc(NCc2ccccc2)nc(-c2cccc(CO)c2)n1 [ZINC32547799] | 0 |  | 0 |  |  | 0 | 0 | 0 |  | 0 | 0 |  | 0 | 1 | 1 |  | 1 | 1 |  | 0 | Growth Rate (HEK-293T; [8]): 0; Growth Rate (HEK-293T; [9]): 0; Growth Rate (Fibroblast; [1]): 0; Growth Rate (Fibroblast; [7]): 1
Nc1nc(NCCc2ccc(O)cc2)nc2nc(-c3ccco3)nn12 [ZM-241385] | 1 | 0 | 0 |  | 1 |  | 1 | 1 | 0 | 1 |  | 0 |  | 0 | 0 | 1 | 0 | 0 | 1 | 0 | Growth Rate (HEK-293T; [8]): 0; Growth Rate (HEK-293T; [9]): 0; Growth Rate (Fibroblast; [1]): 0; Growth Rate (Fibroblast; [3]): 0; Growth Rate (U2OS; [2]): 0; Growth Rate (U2OS; [7]): 1
